Values after ≈ are worked out from the molar mass of the structure shown.
How the values were obtained:
[1] = Oral bioavailability in rat at 1 mg/kg; format: ADME, organism-based; conditions: in vivo
[2] = Stability in rat liver microsomes assessed as parent compound remaining after 2 hrs by LC-MS/MS analysis; format: ADME, microsome; conditions: read-out: Stability
[3] = target: T1, Nuclear receptor ROR-gamma (Homo sapiens, UniProt P51449); assay: (§1) Transrepression of recombinant human GAL4-DBD fused RORgammat LBD expressed in HEK293 cells after 20 hrs by luciferase reporter gene assay; format: cell-based
T1 sequence (P51449 whole entry): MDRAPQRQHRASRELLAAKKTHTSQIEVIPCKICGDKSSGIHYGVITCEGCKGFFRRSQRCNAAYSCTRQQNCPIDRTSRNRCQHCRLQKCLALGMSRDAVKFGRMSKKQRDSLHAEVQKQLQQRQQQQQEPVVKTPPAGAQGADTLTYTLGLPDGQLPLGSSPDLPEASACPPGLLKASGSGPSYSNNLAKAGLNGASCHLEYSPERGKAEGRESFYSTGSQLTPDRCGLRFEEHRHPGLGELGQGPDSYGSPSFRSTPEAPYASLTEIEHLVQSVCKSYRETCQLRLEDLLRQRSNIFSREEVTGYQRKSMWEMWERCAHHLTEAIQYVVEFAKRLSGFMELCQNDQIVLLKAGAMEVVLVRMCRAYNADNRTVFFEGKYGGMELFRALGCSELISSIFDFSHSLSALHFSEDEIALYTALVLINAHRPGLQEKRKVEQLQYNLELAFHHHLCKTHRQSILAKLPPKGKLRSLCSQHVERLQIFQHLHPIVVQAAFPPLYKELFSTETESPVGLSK

[4] = target: T2, Nuclear receptor ROR-gamma (Homo sapiens) (UniProt P51449); assay: as §1; format: cell-based
T2 sequence (whole entry): T1 sequence (P51449 whole entry)

[5] = Total clearance in rat at 0.5 mg/kg, iv; format: ADME, organism-based; conditions: in vivo
[6] = target: T3, Oxysterols receptor LXR-beta (Homo sapiens, UniProt P55055); assay: Transrepression of recombinant human GAL4-DBD fused LXRbeta LBD expressed in HEK293 cells after 20 hrs by luciferase reporter gene assay; format: cell-based
T3 sequence (P55055 whole entry): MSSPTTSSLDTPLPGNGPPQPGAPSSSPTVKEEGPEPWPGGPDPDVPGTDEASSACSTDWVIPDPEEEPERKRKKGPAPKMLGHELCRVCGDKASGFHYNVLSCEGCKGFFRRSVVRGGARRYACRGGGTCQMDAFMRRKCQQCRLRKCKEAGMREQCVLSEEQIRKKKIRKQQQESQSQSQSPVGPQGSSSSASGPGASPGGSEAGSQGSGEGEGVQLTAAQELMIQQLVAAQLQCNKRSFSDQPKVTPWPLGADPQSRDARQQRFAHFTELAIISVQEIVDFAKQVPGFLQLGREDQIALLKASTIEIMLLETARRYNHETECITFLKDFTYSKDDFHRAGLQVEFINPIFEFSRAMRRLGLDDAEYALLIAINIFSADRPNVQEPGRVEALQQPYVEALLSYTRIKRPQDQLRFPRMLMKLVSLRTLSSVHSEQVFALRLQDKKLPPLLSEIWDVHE

[7] = target: T4, Oxysterols receptor LXR-alpha (Homo sapiens, UniProt Q13133); assay: Transrepression of recombinant human GAL4-DBD fused LXRalpha LBD expressed in HEK293 cells after 20 hrs by luciferase reporter gene assay; format: cell-based
T4 sequence (Q13133 whole entry): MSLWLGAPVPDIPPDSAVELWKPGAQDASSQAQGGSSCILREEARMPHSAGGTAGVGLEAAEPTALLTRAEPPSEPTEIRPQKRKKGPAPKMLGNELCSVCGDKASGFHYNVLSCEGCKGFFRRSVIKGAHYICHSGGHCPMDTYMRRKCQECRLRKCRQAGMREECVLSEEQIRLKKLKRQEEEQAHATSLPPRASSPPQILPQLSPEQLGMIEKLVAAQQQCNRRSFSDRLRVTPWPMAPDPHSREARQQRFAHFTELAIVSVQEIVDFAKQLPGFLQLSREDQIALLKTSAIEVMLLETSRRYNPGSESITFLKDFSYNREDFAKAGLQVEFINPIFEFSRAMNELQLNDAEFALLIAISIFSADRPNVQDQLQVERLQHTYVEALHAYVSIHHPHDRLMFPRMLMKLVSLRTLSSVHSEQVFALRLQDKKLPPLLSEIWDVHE

[8] = Fraction unbound in rat plasma at 1 mg/kg, po; format: ADME, organism-based
[9] = Half life in rat at 0.5 mg/kg, iv; format: ADME, organism-based; conditions: in vivo
[10] = Cmax in rat at 1 mg/kg, po; format: ADME, organism-based; parameters: dose 1 mg/kg, route oral; conditions: in vivo
[11] = Volume of distribution at steady state in rat at 0.5 mg/kg, iv; format: ADME, organism-based; conditions: in vivo, read-out: Vdss
[12] = target: T5, Nuclear receptor ROR-gamma (Mus musculus, UniProt P51450); assay: Transrepression of RORgammat in anti-CD3/CD28 stimulated C57BL/6 mouse CD4-positive T cells assessed as suppression of T cell differentiation to Th17 cells by measuring reduction in IL-17A level after 4 days by ELISA
T5 sequence (P51450 whole entry): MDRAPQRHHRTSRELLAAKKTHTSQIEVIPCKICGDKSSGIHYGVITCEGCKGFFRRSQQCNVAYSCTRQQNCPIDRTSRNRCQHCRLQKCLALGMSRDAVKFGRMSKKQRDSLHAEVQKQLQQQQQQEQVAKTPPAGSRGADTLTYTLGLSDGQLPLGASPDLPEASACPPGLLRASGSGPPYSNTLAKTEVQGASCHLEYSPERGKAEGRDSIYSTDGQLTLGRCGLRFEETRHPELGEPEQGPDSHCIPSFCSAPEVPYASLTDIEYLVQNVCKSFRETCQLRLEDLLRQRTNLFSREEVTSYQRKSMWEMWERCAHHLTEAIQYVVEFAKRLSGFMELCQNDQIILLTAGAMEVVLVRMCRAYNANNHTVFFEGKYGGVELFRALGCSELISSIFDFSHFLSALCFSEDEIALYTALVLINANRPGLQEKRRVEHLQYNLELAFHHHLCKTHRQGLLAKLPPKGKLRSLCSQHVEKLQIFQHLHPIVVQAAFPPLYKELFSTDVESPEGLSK

[13] = Solubility of the compound in KH2PO4/Na2HPO4 buffer at pH 6.8 by shake-flask method; format: physicochemical
[14] = AUC in rat at 0.5 mg/kg, iv; format: ADME, organism-based; conditions: in vivo
[15] = AUC in rat at 1 mg/kg, po; format: ADME, organism-based; conditions: in vivo
[16] = Solubility of the compound in NaCl/HCl buffer at pH 1.2 by shake-flask method; format: physicochemical
[17] = Stability in human liver microsomes assessed as parent compound remaining after 2 hrs by LC-MS/MS analysis; format: ADME, microsome; conditions: read-out: Stability
[18] = target: T6, Nuclear receptor ROR-gamma (Mus musculus) (UniProt P51450); assay: (§2) Transrepression of recombinant mouse GAL4-DBD fused RORgammat LBD expressed in HEK293 cells after 20 hrs by luciferase reporter gene assay; format: cell-based
T6 sequence (whole entry): T5 sequence (P51450 whole entry)

[19] = target: T5, Nuclear receptor ROR-gamma; assay: as §2; format: cell-based

| bioavailability [1] | remaining at 2 h [2] | IC50 [3] | Efficacy [4] | clearance [5] | EC50 [6] | EC50 [7] | fraction unbound [8] | half-life [9] | Cmax [10] | Vd [11] | IC50 [12] | solubility thermodynamic [13] | AUC [14] | AUC [15] | solubility thermodynamic [16] | remaining at 2 h [17] | Efficacy [18] | IC50 [19] | Structure (SMILES) |
| --- | --- | --- | --- | --- | --- | --- | --- | --- | --- | --- | --- | --- | --- | --- | --- | --- | --- | --- | --- |
| 19.6% | 71% | 16 nM | 95% | 15 mL/min/kg | > 30000 nM | > 30000 nM | 0.051 | 2.9 h | 33.3 ng/mL | 3.3 L/kg | 68 nM | 9 µM (≈ 4.58 µg/mL) | 556 ng·h/mL | 218 ng·h/mL | 30 µM (≈ 15.3 µg/mL) | 82% | 88% | 74 nM | CCS(=O)(=O)c1ccc(CC(=O)Nc2ccc(C(C)(C)C(=O)Nc3cc(C#N)ccn3)c(F)c2)cc1 |
| 54.5% | 89% | 29 nM | 100% | 4.33 mL/min/kg | > 30000 nM | > 30000 nM | 0.034 | 3.2 h | 185 ng/mL | 1.1 L/kg | 200 nM | 25 µM (≈ 13 µg/mL) | 1930 ng·h/mL | 2110 ng·h/mL | 29 µM (≈ 15 µg/mL) | 95% | 85% | 340 nM | CCS(=O)(=O)c1ccc(CC(=O)Nc2ccc(C(C)(C)C(=O)Nc3ccc(F)cc3F)c(F)c2)cc1 |
| 39.9% | 77% | 25 nM | 95% | 8.45 mL/min/kg | > 30000 nM | > 30000 nM | 0.036 | 2.5 h | 85.3 ng/mL | 1.7 L/kg | 420 nM | 16 µM (≈ 8.01 µg/mL) | 986 ng·h/mL | 786 ng·h/mL | 26 µM (≈ 13 µg/mL) | 63% | 85% | 250 nM | CCS(=O)(=O)c1ccc(CC(=O)Nc2ccc(C(C)(C)C(=O)Nc3ccc(F)cc3)c(F)c2)cc1 |

Reference: ChEMBL document CHEMBL4261613, “Discovery of a potent orally bioavailable retinoic acid receptor-related orphan receptor-gamma-t (RORγt) inhibitor, S18-000003” (Bioorg Med Chem Lett, 2018)
